# Experimental data as given in patent US20170226507A1, “COORDINATE CONTROL OF PATHOGENIC SIGNALING BY THE MIR-130/301 FAMILY IN PULMONARY HYPERTENSION AND FIBROPROLIFERATIVE DISEASES” (The Brigham and Women's Hospital, Inc., priority 2014, published 2017).
# Entries after “also recorded” stand apart in the source; their conditions may differ.
# Tests used:
# [1] = tested on: pulmonary tissue and pulmonary vasculature of mice; experiment: Forced expression of miR-130a in mouse lung (SU5416, intrapharyngeal mimic) with or without rosiglitazone or BAPN
# Description: In the presence of SU5416 (days of injection are highlighted in red) but in the absence of hypoxia, intrapharyngeal injection of wildtype mice was performed serially 4 times at 1 week intervals with 1 nmol of miR-NC or 1 nmol of miR-130a (days of administration are in black). During this period, mice were treated daily by oral gavage with 20 mg/kg of rosiglitazone or vehicle. At day 25, echocardiography and right heart catheterization was performed followed by euthanasia and blood/tissue sampling.
# Eight-week-old mice (C57Bl6) were injected with SU5416 weekly (20 mg/kg/dose; Sigma-Aldrich), accompanied by 4 intrapharyngeal injections (once by week) of 1 nmol of miR-control (pre-miR-NC) or miR-130a (pre-miR-130a) mixed in 100 uL PBS solution containing 5% Lipofectamine 2000 (Life Technologies). Three days after the last injection, right heart catheterization was performed as previously described (9), followed by harvest of lung tissue for RNA extraction or paraffin embedding, as described above. Rosiglitazone (Cayman Chemicals) was dissolved in 0.25% carboxymethyl cellulose medium viscosity aqueous solution. This rosiglitazone solution versus vehicle control was delivered daily (20 mg/kg/day) by oral gavage to mice for 3 weeks.
# After physiological measurements, blood was extracted by cardiac puncture for future analyses (hematocrit, plasma extraction). By direct right ventricular puncture, the pulmonary vessels were gently flushed with 1 cc of saline to remove the majority of blood cells, prior to harvesting cardiopulmonary tissue. The heart was removed, followed by dissection and weighing of the right ventricle (RV) and of the left ventricle+septum (LV+S). Organs were then harvested for histological preparation or flash frozen in liquid N2 for subsequent homogenization and extraction of RNA and/or protein. To further process lung tissue specifically, prior to excision, lungs were flushed with PBS at constant low pressure (˜10 mmHg) via right ventricular cannulation, followed by tracheal inflation of the left lung with 10% neutral-buffered formalin (Sigma-Aldrich) at a pressure of −20 cm H2O. After excision and 16 hours of fixation in 10% neutral-buffered formalin at 25° C., lung tissues were paraffin-embedded via an ethanol-xylene dehydration series, before being sliced into 5 μm sections (Hypercenter XP System and Embedding Center, Shandon).
# Lung sections (5 μm) were deparaffinized and high temperature antigen retrieval was performed followed by blocking in TBS/BSA 5%, 10% goat serum and exposure to primary antibody and biotinylated secondary antibody (Vectastain ABC kit, Vector Labs). In most cases, color development was achieved by adding streptavidin-biotinylated alkaline phosphatase complex (Vector Labs) followed by Vector Red alkaline phosphatase substrate solution (Vector Labs). Levamisole was added to block endogenous alkaline phosphatase activity (Vector Labs). Pictures were obtained using an Olympus Bx51 microscope (40× objective). Small pulmonary vessels (<100 μm diameter) present in a given tissue section (>10 vessels per section) that were not associated with bronchial airways were selected for analysis (N>5 animals per group). Intensity of staining was quantified using ImageJ software (NIH). Degree of pulmonary arteriolar muscularization was assessed in paraffin-embedded lung sections stained for α-SMA by calculation of the proportion of fully and partially muscularized peripheral (<100 μm diameter) pulmonary arterioles to total peripheral pulmonary arterioles, as previously described (29). Medial thickness was also measured in α-SMA stained vessels (<100 μm diameter) using ImageJ software (NIH) and expressed as arbitrary units. All measurements were performed blinded to condition.
# [2] = tested on: hypoxia-induced PH in mice; experiment: Hypoxia-induced PH in mice: BAPN (prevention, rescue) or GW3965 (prevention); type: in vivo, mouse
# Excerpt: Finally, we wanted to determine if ApoE activity and/or LOX-dependent vascular stiffening were essential for ECM stiffening and PH development by miR-130/301. To assess the importance of ApoE activity, we attempted to prevent PH in mice via treatment with daily dietary ingestion of the liver-X nuclear hormone receptor (LXR) agonist GW3965, a known pharmacologic inducer of ApoE (Pencheva et al., 2014), simultaneously with hypoxia (FIGS. 62A-62H and 68A-H). Alternatively, experiments were designed to either prevent or reverse hypoxia-induced PH in mice via serial treatment with a pharmacologic inhibitor of LOX (Levental et al., 2009), β-aminopropionitrile BAPN, administered either simultaneously with hypoxia exposure (“prevention”) or after disease development (“reversal”) (FIGS. 62A-62H and 68A-H). In all cases of GW3965 or BAPN treatment, collagen crosslinking (FIG. 62D, 62H, FIG. 68) was inhibited, leading to decreased indices of PH, as reflected by RVSP (FIG. 62A, 62E), right ventricular remodeling (RV/LV+S ratio; FIG. 62B, 62F) and pulmonary arteriolar muscularization (FIG. 62C, 62G). GW3965 or BAPN treatment also reversed Pparγ and Lrp8 down-regulation (FIGS. 68A-68H) as well as reduced YAP nuclear localization (FIG. 62D, 62H) and YAP activation, as reflected by decreased Ctgf (FIGS. 68A-68H). Thus, considering the convergent data regarding pharmacologic manipulation of miR-130/301, APOE, and LOX, we can conclude that the YAP-TAZ-miR-130/301 circuit and its downstream network of targets act as master regulators of ECM remodeling in PH and represent a new set of targets for tailored molecular therapy in this disease.
# To determine the effects of the LXR agonist GW3965 (Sigma-Aldrich) and consequent APOE induction on PH development, as previously described (Pencheva et al., 2014), mice were exposed to normobaric hypoxia and simultaneously assigned to control chow or chow supplemented with GW3965 (Research Diets, Inc.) at doses of 100 mg of drug per kilogram of mouse per day (based on average daily intake of […] of chow).
# Picrosirius Red stain was achieved through the use of 5 μm paraffin sections stained with 0.1% Picrosirius Red (Direct Red80, Sigma-Aldrich) and counterstained with Weigert's hematoxylin to reveal fibrillar collagen. The sections were then serially imaged using with an analyzer and polarizer oriented parallel and orthogonal to each other. Microscope conditions (lamp brightness, condenser opening, objective, zoom, exposure time, and gain parameters) were constant throughout the imaging of all samples. A minimal threshold was set on appropriate control sections for each experiment in which only the light passing through the orthogonally-oriented polarizers representing fibrous structures (i.e., excluding residual light from the black background) was included. The threshold was maintained for all images across all conditions within each experiment. The area of the transferred regions that was covered by the thresholded light was calculated and at least 10 sections/vessel per condition were averaged together (Image J software).
# This protocol was adapted from a previously published protocol (Hu et al.). Mouse lung was weighed, minced, and incubated in 0.5 M acetic acid at 4° C. After overnight digestion, the acetic acid-soluble and insoluble fractions were isolated by centrifugation. The soluble fraction was stored at −80° C., while the insoluble fraction was digested by overnight incubation in 6M hydrochloric acid at 85° C. Concentrations of soluble and insoluble (gelatinous) collagen fractions were determined using a Sircol Soluble Collagen Assay Kit (Biocolor) with a colorimetric reaction (measured at 550 nm) and a provided collagen reference standard curve.
# [3] = rosiglitazone or BAPN on top of miR-130a
compound,measurement,setting,value
"N#CCCN [BAPN, β-aminopropionitrile]","miR-130a-mediated changes in collagen, α-SMA, YAP staining and perivascular collagen crosslinking","[1]; BAPN 30 mg/kg/day, Picrosirius Red and in situ staining",decrease; also recorded: blunted
same,YAP activation and downstream PH manifestations,[1]; BAPN in miR-130-exposed mice,reversed
same,"Ctgf, collagen isoforms and Lox expression in lung","[1]; RT-qPCR, BAPN on top of miR-130a",temper; also recorded: blunted
same,right ventricular systolic pressure (RVSP),"[1]; SU5416 mice, miR-130a 1 nmol x4, rosiglitazone 20 mg/kg daily oral or BAPN 30 mg/kg/day on top of miR-130a",lessened
same,total (soluble) collagen and crosslinked (insoluble) collagen in whole lung,"[1]; Sircol / biochemical analysis, BAPN on top of miR-130a",reversed; also recorded: decreased
same,percentage of muscularized small pulmonary arterioles,[1]; [3],lessened
same,"right ventricular remodeling, RV/(LV+S) mass ratio",[1]; [3],lessened
same,perivascular collagen crosslinking,[2]; Picrosirius Red,inhibited; also recorded: decreased
same,"Ctgf, collagen isoforms, and Lox in lung",[2]; RT-qPCR,blunted
same,whole lung collagen content and crosslinked collagen,[2]; Sircol assay,"normalized by BAPN rescue treatment, and kept at baseline by preventative BAPN treatment; also recorded: nearly normalized by BAPN rescue treatment and largely maintained at baseline by BAPN prevention treatment"
same,arteriolar muscularization,[2]; hypoxic mice,decreased; also recorded: both prevented and reversed
same,"right ventricular hypertrophy (Fulton index, RV/LV+S)",[2]; hypoxic mice,decreased; also recorded: both prevented and reversed
same,RVSP,"[2]; hypoxic mice, BAPN prevention and rescue, GW3965 100 mg/kg/day in chow",decreased; also recorded: both prevented and reversed
same,hypoxia mediated decreases of Lrp8 and Pparγ,[2]; in situ staining,reversed; also recorded: either prevented or rescued
same,hypoxia-mediated increases of α-SMA and YAP,[2]; in situ staining,reduced; also recorded: blunted
